Measurements published in ChEMBL document CHEMBL1124199, “Thienylpyrazoloquinolines: potent agonists and inverse agonists to benzodiazepine receptors” (J Med Chem, 1988).
The source made the active and inactive calls. The rule behind the calls is not given here.

Key:
Mus musculus [1] = experiment: Agonist activity was evaluated by the inhibition of the pentylenetetrazole (PTZ) induced convulsions after peroral administration; Inactive up to 50 mg/kg; assay type: functional, organism-based; parameters: dose 50 mg/kg
[2] = molecular target: GABA-A receptor; anion channel; experiment: Binding affinity against benzodiazepine (BZ) receptor by displacing [3H]diazepam in cerebral cortex of Wistar rats; assay type: tissue-based, Rattus norvegicus
Mus musculus [3] = experiment: Inverse agonist activity of orally administered compound against a subcutaneous dose of 90 mg/kg of PTZ-induced convulsions in mice; Inactive; assay type: functional, organism-based; parameters: dose 90 mg/kg
Mus musculus [4] = experiment: Inverse agonist activity of orally administered compound against a subcutaneous dose of 90 mg/kg of PTZ-induced convulsions in mice; inactive up to 50 mg/kg; assay type: functional, organism-based
Mus musculus [5] = experiment: Inverse agonist activity of orally administered compound against a subcutaneous dose of 75 mg/kg of PTZ-induced convulsions in mice; inactive up to 50 mg/kg; assay type: functional, organism-based
Mus musculus [6] = experiment: Agonist activity was evaluated by the inhibition of the pentylenetetrazole (PTZ) induced convulsions after peroral administration; assay type: functional; conditions: po
Mus musculus [7] = experiment: Inverse agonist activity of orally administered compound against a subcutaneous dose of 90 mg/kg of PTZ-induced convulsions in mice; Inactive up to 50 mg/kg; assay type: functional, organism-based
Mus musculus [8] = experiment: Inverse agonist activity of orally administered compound against a subcutaneous dose of 90 mg/kg of PTZ-induced convulsions in mice; inactive; assay type: functional, organism-based; parameters: dose 90 mg/kg
Mus musculus [9] = experiment: Inverse agonist activity of orally administered compound against a subcutaneous dose of 90 mg/kg of PTZ-induced convulsions in mice; assay type: functional; conditions: route oral
Mus musculus [10] = experiment: Inverse agonist activity of orally administered compound against a subcutaneous dose of 75 mg/kg of PTZ-induced convulsions in mice; assay type: functional; conditions: route oral
Mus musculus [11] = experiment: Agonist activity was evaluated by the inhibition of the pentylenetetrazole (PTZ) induced convulsions after peroral administration at 50 mg/kg; assay type: functional; conditions: route oral
Mus musculus [12] = experiment: Inverse agonist activity of orally administered compound against a subcutaneous dose of 90 mg/kg of PTZ-induced convulsions in mice expressed as percent of mice affected; assay type: functional; conditions: route oral
Mus musculus [13] = experiment: Inverse agonist activity of orally administered compound against a subcutaneous dose of 75 mg/kg of PTZ-induced convulsions in mice; Inactive up to 50 mg/kg; assay type: functional, organism-based
Mus musculus [14] = experiment: Inverse agonist activity of orally administered compound against a subcutaneous dose of 50 mg/kg of PTZ-induced convulsions in mice; expressed as percent of mice affected; assay type: functional; conditions: route oral
Mus musculus [15] = experiment: Inverse agonist activity of orally administered compound against a subcutaneous dose of 50 mg/kg of PTZ-induced convulsions in mice; assay type: functional; conditions: route oral

SMILES | ED50 (Mus musculus [1]) | Ki [2] | ED50 (Mus musculus [9]) | also measured
Cc1ccc2c(c1)ncc1c(=O)n(-c3csc(C)c3)[nH]c12 | inactive | 0.96 nM | – | ED50 (Mus musculus [3]): inactive
Cc1cc(-n2[nH]c3c(cnc4ccccc43)c2=O)c(Br)s1 | inactive | 27.2 nM | – | ED50 (Mus musculus [4]): inactive; ED50 (Mus musculus [5]): inactive
CCc1ccc(-n2[nH]c3c(cnc4ccccc43)c2=O)s1 | – | 1.02 nM | – | ED50 (Mus musculus [6]): 14.3 mg/kg
CCOC(=O)c1cc(C)sc1-n1[nH]c2c(cnc3ccccc32)c1=O | inactive | 9.84 nM | – | ED50 (Mus musculus [7]): inactive
COC(=O)c1sccc1-n1[nH]c2c(cnc3ccccc32)c1=O | inactive | 142 nM | – | ED50 (Mus musculus [5]): inactive; ED50 (Mus musculus [8]): inactive
CCCCc1ccc(-n2[nH]c3c(cnc4ccccc43)c2=O)s1 | – | 1.48 nM | – | ED50 (Mus musculus [6]): 12.5 mg/kg
CCc1cc(-n2[nH]c3c(cnc4ccccc43)c2=O)cs1 | – | 0.41 nM | 10.3 mg/kg | ED50 (Mus musculus [5]): inactive
CCn1cc2c(=O)n(-c3csc(C)c3)nc-2c2ccccc21 | – | 436 nM | 5.24 mg/kg | ED50 (Mus musculus [10]): 13.3 mg/kg
Cc1ccc(-n2[nH]c3c(cnc4c(Cl)cccc43)c2=O)s1 | – | 0.75 nM | – | ED50 (Mus musculus [7]): inactive; Animals affected (Mus musculus [11]): 25%
Cc1cc(-n2[nH]c3c(cnc4c(F)cccc43)c2=O)cs1 | – | 0.37 nM | 1.32 mg/kg | ED50 (Mus musculus [10]): 2.58 mg/kg
Cc1cc(-n2[nH]c3c(cnc4ccccc43)c2=O)sc1C | – | 0.73 nM | – | ED50 (Mus musculus [6]): 30.6 mg/kg
Cc1cc(C(=O)O)c(-n2[nH]c3c(cnc4ccccc43)c2=O)s1 | inactive | 21.6 nM | – | ED50 (Mus musculus [7]): inactive
Cc1cc(-n2[nH]c3c(cnc4c(C)cccc43)c2=O)cs1 | – | 0.38 nM | 5.24 mg/kg | ED50 (Mus musculus [10]): 12.9 mg/kg
Cc1csc(-n2[nH]c3c(cnc4ccccc43)c2=O)c1 | inactive | 0.48 nM | – | Affected animals (Mus musculus [12]): 62.5%; ED50 (Mus musculus [5]): inactive
Cc1cc(-n2[nH]c3c(cnc4c(Cl)cccc43)c2=O)cs1 | – | 0.63 nM | 7.7 mg/kg | ED50 (Mus musculus [10]): 13.5 mg/kg
Cc1ccc(-n2[nH]c3c(cnc4cc(Cl)ccc43)c2=O)s1 | inactive | 1.05 nM | – | ED50 (Mus musculus [7]): inactive
Cc1cc(-n2[nH]c3c(cnc4ccccc43)c2=O)c(Cl)s1 | inactive | 4.69 nM | – | ED50 (Mus musculus [5]): inactive; ED50 (Mus musculus [3]): inactive
Cc1cc(-n2[nH]c3c(cnc4cc(Cl)ccc43)c2=O)cs1 | inactive | 0.78 nM | – | ED50 (Mus musculus [4]): inactive; ED50 (Mus musculus [5]): inactive

SMILES | ED50 (Mus musculus [1]) | Ki [2] | ED50 (Mus musculus [9]) | also measured
O=C(O)c1sccc1-n1[nH]c2c(cnc3ccccc32)c1=O | inactive | 17.8 nM | – | ED50 (Mus musculus [5]): inactive; ED50 (Mus musculus [3]): inactive
O=C1C2C=Nc3ccccc3C2=NN1c1ccccc1 (centres undefined) | – | – | – | ED50 (Mus musculus [13]): inactive
Cc1ccc(-n2[nH]c3c(cnc4cc(F)ccc43)c2=O)s1 | – | 0.65 nM | – | ED50 (Mus musculus [6]): 16.3 mg/kg
Cc1cc(-n2[nH]c3c(cnc4cc(F)ccc43)c2=O)cs1 | – | 0.64 nM | 6.15 mg/kg | Affected animals (Mus musculus [14]): 37.7%
Cc1ccc(-n2[nH]c3c(cnc4c(F)cccc43)c2=O)s1 | – | 0.92 nM | – | ED50 (Mus musculus [6]): 30.4 mg/kg
O=c1c2cnc3ccccc3c2[nH]n1-c1ccsc1 | – | 0.73 nM | 2.49 mg/kg | ED50 (Mus musculus [10]): 7.62 mg/kg
Cc1cc(-n2[nH]c3c(cnc4ccccc43)c2=O)cs1 | – | – | 0.92 mg/kg | –
Cc1ccc(-n2nc3c4ccccc4n(C)cc-3c2=O)s1 | – | 1020 nM | – | ED50 (Mus musculus [6]): 13.4 mg/kg
CN1C(=O)CN=C(c2ccccc2)c2cc(Cl)ccc21 [DIAZEPAM] | – | – | – | ED50 (Mus musculus [6]): 0.67 mg/kg
O=C1C2C=Nc3ccccc3C2=NN1c1ccc(Cl)cc1 (centres undefined) [CGS-9896] | – | 0.83 nM | – | ED50 (Mus musculus [6]): 1.17 mg/kg
O=c1c2cnc3ccccc3c2[nH]n1-c1cccs1 | inactive | 0.41 nM | 9.54 mg/kg | Animals affected (Mus musculus [15]): 50%
O=c1c2cnc3ccccc3c2[nH]n1-c1ccc(Cl)s1 | inactive | 2.48 nM | – | Affected animals (Mus musculus [12]): 25%
Cc1ccc2c(c1)ncc1c(=O)n(-c3ccc(C)s3)[nH]c12 | inactive | 2.34 nM | – | ED50 (Mus musculus [3]): inactive
Cc1cc(-n2nc3c4ccccc4n(C)cc-3c2=O)cs1 | – | 215 nM | 1.48 mg/kg | ED50 (Mus musculus [10]): 2.94 mg/kg
O=c1c2cnc3ccccc3c2[nH]n1-c1csc(Cl)c1 | – | 0.73 nM | 11.5 mg/kg | ED50 (Mus musculus [10]): 23.2 mg/kg
Cc1cscc1-n1[nH]c2c(cnc3ccccc32)c1=O | – | 6.86 nM | 22.3 mg/kg | ED50 (Mus musculus [10]): 84.4 mg/kg
Cc1ccc(-n2[nH]c3c(cnc4c(C)cccc43)c2=O)s1 | – | 0.83 nM | – | ED50 (Mus musculus [7]): inactive; ED50 (Mus musculus [6]): 25 mg/kg
